Laboratory results reported in patent US20230286973A1, “PROTEIN SECRETION INHIBITORS” (KEZAR LIFE SCIENCES, priority 2020, published 2023).

Columns and labels:
[1] = test system: HER3-ss+4aa/Gaussia Luciferase; assay: Dox-Induced Her3-ss-Gluc Assay; assay type: cell-based; details: 24 hr Dox induction; 293FRT/TO cells; mean; read-out: 24 hr Dox Inducible Her3(ss + 4)Gluc 293FRT/TO: Mean IC50
Method in brief: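 Doxycycline-inducible HER3 signal sequence+4aa/Gaussia luciferase construct, stably integrated in Flp-In 293 T-REx cells; compound dilutions applied with doxycycline at 37° C., 5% CO2.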

[2] = test system: multiple myeloma cell line NCI-H929; assay: H929 Cell Viability Assay; assay type: cell-based, human; details: Homo sapiens, NCI-H929, 48 h, NCI-H929 cells, Celltiter-Glo
Method in brief: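 A 48-hour compound treatment of cells in 10% FBS RPMI medium was followed by luciferase-based viability quantification.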

[3] = test system: IL-2-FL/Gaussia Luciferase; assay: Dox Induced IL2-FL-Gluc Assay; assay type: cell-based; details: for IC50: 24 hr Dox induction, 293FRT/TO cells, mean, read-out: 24 hr Dox Inducible IL2FLGluc 293FRT/TO: Mean IC50; for 24 hr Dox Inducible IL2FLGluc 293FRT/TO: IL2/PD1: ratio of IL2FLGluc IC50 to PD1ssGluc IC50, '<=>' given where both are I.A.
Method in brief: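 A hygromycin- and blasticidin-resistant 293 T-REx clone carrying inducible IL-2–Gaussia luciferase (full-length IL-2, residues 1-153) serves as the cell system. After overnight plating, the cells get test compounds together with doxycycline in DMSO/media and are incubated at 37° C, 5% CO2.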

[4] = Liver Microsome Stability Assay (monkey); details: monkey liver microsomes, with NADPH, 1.0 uM compound
Description: (§1) Stability of a compound was assessed in the presence of liver microsomes from various sources—mouse, rat, monkey and human liver microsomes. 1.0 uM compound, 0.4% DMSO in 0.1 M Potassium Phosphate with 1.0 mg/mL liver microsomes, were incubated at 37° C. with or without 1 mM NADPH. The samples were quenched at 0, and 30 minutes.

[5] = test system: TNFα-FL/Gaussia Luciferase; assay: Dox Induced TNFα-FL-Gluc Assay; assay type: cell-based; details: for IC50: 24 hr Dox induction, 293FRT/TO cells, mean, read-out: 24 hr Dox Inducible TNFaFLGluc 293FRT/TO: Mean IC50; for 24 hr Dox Inducible TNFaFLGluc 293FRT/TO: TNF/PD1: ratio of TNFaFLGluc IC50 to PD1ssGluc IC50, '<=>' given where both are I.A.
Method in brief: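 Hygromycin/blasticidin-selected Flp-In 293 T-REx cells, TNFα-FL/Gaussia luciferase fusion under T-REx control; overnight plating, then compound in DMSO/media with doxycycline at 37 °C, 5% CO2; stereo-undefined structures tested as mixtures.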

[6] = Liver Microsome Stability Assay (human); details: human liver microsomes, with NADPH, 1.0 uM compound
Description: as §1

[7] = Liver Microsome Stability Assay (rat); details: rat liver microsomes, with NADPH, 1.0 uM compound
Description: as §1

[8] = test system: multiple myeloma cell line U266B1; assay: U266 Cell Viability Assay; assay type: cell-based, human; details: Homo sapiens, U-266, 48 h, U266B1 cells, Celltiter-Glo
Method in brief: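 After growth in serum-supplemented RPMI 1640, cells received serially diluted compound in DMSO/media and were kept 48 hours before a CellTiter-Glo luminescence readout.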

[9] = Liver Microsome Stability Assay (mouse); details: mouse liver microsomes, with NADPH, 1.0 uM compound
Description: as §1

[10] = test system: PD1-ss+10aa/Gaussia Luciferase; assay: Dox-Induced PD1-ss-Gluc Assay; assay type: cell-based; details: 24 hr Dox induction; 293FRT/TO cells; mean; read-out: 24 hr Dox Inducible PD1ssGluc 293FRT/TO: Mean IC50
Method in brief: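 Gaussia luciferase fused downstream of the PD1 signal peptide plus 10 residues was expressed on doxycycline induction in stably transfected Flp-In 293 T-REx cells. Compounds were added with doxycycline and incubated at 37 °C, 5% CO2.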

IC50 [1] [µM] | EC50 [2] [µM] | IC50 [3] [µM] | Liver Microsome Stability (Multiple Species): Monkey - % Remaining after 30 min w/NADPH [4] [%] | IC50 [5] [µM] | Liver Microsome Stability (Multiple Species): Human - % Remaining after 30 min w/NADPH [6] [%] | Liver Microsome Stability (Multiple Species): Rat - % Remaining after 30 min w/NADPH [7] [%] | EC50 [8] [µM] | Liver Microsome Stability (Multiple Species): Mouse - % Remaining after 30 min w/NADPH [9] [%] | IC50 [10] [µM] | Compound | 24 hr Dox Inducible IL2FLGluc 293FRT/TO: IL2/PD1 [3] | 24 hr Dox Inducible TNFaFLGluc 293FRT/TO: TNF/PD1 [5]
0.374 | 20.1 | 0.74 | 6.6 | 2.56 | 26.7 | 22.5 | > 25 | 22.7 | 0.168 | O=C(Nc1nc([C@H]2CCCN2c2ccccc2)cs1)c1cccn1CC1CCOCC1 [Compound C55, (R)-N-(4-(1-phenylpyrrolidin-2-yl)thiazol-2-yl)-1-((tetrahydro-2H-pyran-4-yl)methyl)-1H-pyrrole-2-carboxamide] | 4.4 | 15.3
3.27 | > 25 | 4.67 | 2.02 | 19.2 | 24.4 | 10.9 | > 25 | 21 | 1.75 | O=C(Nc1nc([C@H]2CCCN2c2ccccc2)cs1)c1cccn1CC1CCOC1 (stereo partly drawn) [Compound C56, N-(4-((R)-1-phenylpyrrolidin-2-yl)thiazol-2-yl)-1-((tetrahydrofuran-3-yl)methyl)-1H-pyrrole-2-carboxamide] | 2.7 | 11
9.1 | > 25 | > 25 | 27.4 | > 25 | 35.7 | 34.7 | > 25 | 17 | 7.88 | NC(=O)CCCCn1cccc1C(=O)Nc1nc([C@H]2CCCN2c2ccccc2)cs1 [Compound C58] | 3.2 | >3.17
12.2 | > 25 | > 25 | 2.48 | > 25 | 0.87 | 11.5 | > 25 | 3.23 | 7.98 | CN(C)C(=O)CCn1cccc1C(=O)Nc1nc([C@H]2CCCN2c2ccccc2)cs1 [Compound C59, (R)-1-(3-(dimethylamino)-3-oxopropyl)-N-(4-(1-phenylpyrrolidin-2-yl)thiazol-2-yl)-1H-pyrrole-2-carboxamide] | 3.1 | >3.13
> 25 | > 25 | > 25 | 0.09 | > 25 | 0.05 | 6.4 | > 25 | 0.25 | 8.59 | CN(C)C(=O)CCCCn1cccc1C(=O)Nc1nc([C@H]2CCCN2c2ccccc2)cs1 [Compound C60, (R)-1-(5-(dimethylamino)-5-oxopentyl)-N-(4-(1-phenylpyrrolidin-2-yl)thiazol-2-yl)-1H-pyrrole-2-carboxamide] | 2.9 | >2.91
20.4 | > 25 | 16.7 | 0.03 | > 25 | 0.27 | 3.4 | > 25 | 0.16 | 8.96 | CN(C)C(=O)CCCn1cccc1C(=O)Nc1nc([C@H]2CCCN2c2ccccc2)cs1 [Compound C61, (R)-1-(4-(dimethylamino)-4-oxobutyl)-N-(4-(1-phenylpyrrolidin-2-yl)thiazol-2-yl)-1H-pyrrole-2-carboxamide] | 1.9 | >2.79
6.59 | > 25 | > 25 | 0.28 | > 25 | 31.5 | 4.2 | > 25 | 22.3 | 4.25 | O=C(Nc1nc([C@H]2CCCN2c2ccccc2)cs1)c1cccn1CC1COC1 [Compound C84, (R)-1-(oxetan-3-ylmethyl)-N-(4-(1-phenylpyrrolidin-2-yl)thiazol-2-yl)-1H-pyrrole-2-carboxamide] | >5.9 | >5.88
0.257 | 6.12 | 0.279 | 0.21 | 1.2 | 1.61 | 11.2 | > 25 | 21.3 | 0.126 | CCc1ccc(N2CCC[C@@H]2c2csc(NC(=O)c3cccn3CC3CCOCC3)n2)nc1 [Compound C85, (R)-N-(4-(1-(5-ethylpyridin-2-yl)pyrrolidin-2-yl)thiazol-2-yl)-1-((tetrahydro-2H-pyran-4-yl)methyl)-1H-pyrrole-2-carboxamide] | 2.2 | 9.53
1.11 | > 25 | 2.38 | 15 | > 25 | 27.3 | 20.2 | > 25 | 43.5 | 2.98 | N#Cc1ccccc1Cn1cccc1C(=O)Nc1nc([C@H]2CCCN2c2ccccc2)cs1 [Compound C86, (R)-1-(2-cyanobenzyl)-N-(4-(1-phenylpyrrolidin-2-yl)thiazol-2-yl)-1H-pyrrole-2-carboxamide] | 0.8 | >8.38
0.129 | 4.05 | 0.238 | 0.21 | 0.731 | 12.8 | 6.85 | > 25 | 14.2 | 0.0784 | C[C@@H](CC#N)Cn1cccc1C(=O)Nc1nc([C@H]2CCCN2c2ccccc2)cs1 [Compound C87, 1-((S)-3-cyano-2-methylpropyl)-N-(4-((R)-1-phenylpyrrolidin-2-yl)thiazol-2-yl)-1H-pyrrole-2-carboxamide] | 3 | 9.32
